According to patent publication US8796327B2, “Method for inhibiting production of cytokines of T helper cell type II and/or inhibiting production of chemokines using brazilin” (China Medical University, priority 2010, dated 2014):

Assays:
mice with asthma = test: Airway (pulmonary) resistance determination, invasive body plethysmography with methacholine; assay type: in vivo, BALB/c mice; details: for pulmonary resistance Rrs (cm H2O/ml): OVA-sensitized BALB/c mice
Method: In Example 2, mice with asthma were used to conduct in vivo experiments, and ovalbumin (OVA) was used as an allergen.
The mice were sensitized (or challenged) according to the steps shown in FIG. 9 (see Lee et al., Lentiviral-mediated GATA-3 RNAi decreases allergic airway inflammation and hyperresponsiveness. Molecular Therapy, 2008; 16:60-65, which is incorporated herein in its entirety by reference). First, 50 μg OVA (using 2 mg alumina (Alum, Alumlmuject, Pierce Chemical, Rockford, Ill., USA) as an adjuvant) was injected into six to eight-week-old BALB/c female mice (from National Laboratory Animal Center, Taiwan) by intraperitoneal injection (i.p.). At 0th, 14th, and 28th day, the mice were injected with OVA at the same dosage. Before the administration of OVA at the forty-first and the forty-second days, different dosages of brazilin (high dose: 430 μg/mice; low dose: 43 μg/mice) were administrated to the mice by intraperitoneal injection (i.p.) or intratracheal instillation (i.t.). During the fortieth to the forty-second days, 100 μg OVA was dissolved in 40 μl PBS, and was administrated to the mice by intranasal instillation (i.n.) (once everyday, for three days). At the forty-third day, airway hyperresponsiveness of the mice was observed. At the forty-sixth day, the mice were sacrificed and used to conduct the following Experiments E to G During the above procedure, it was observed if any toxicity response arises after the administration of brazilin to the mice. In this experiment, the mice administrated with OVA were used as a positive control, and the mice not administrated with OVA were used as a negative control.
Airway (pulmonary) resistance determination was carried out by conducting invasive body plethysmography according to the Glaab's method (see Glaab et al., Repetitive measurements of pulmonary mechanics to inhaled cholinergic challenge in spontaneously breathing mice. J Appl Physiol, 2004; 97:1104-1111, which is incorporated herein in its entirety by reference). In this method, the increase of pulmonary resistance of mice administrated with methacholine is observed.
First, BALB/c mice were anesthetized with 70 to 90 mg/kg-body weight of pentobarbital sodium (Sigma), and the trachea of the mice were cut to generate a bore, and the mice were subjected to external ventilation (150 breaths/minute) with a ventilator (Harvard Rodent Ventilator, model 683, Southnatick, Mass., USA) controlled by a computer to maintain the tidal volume at 0.3 ml and the terminal expiring positive pressure at 3 to 4 cm-H2O. A PE-50 pipeline was inserted into the gullets and reached to the chest position of the mice, and the pipeline was connected to a pressure transducer (LDS GOULD, Valley View, Ohio, USA), and the pressure, air flow rate, and the variation of air capacity in the lungs of the mice were recorded. Software (Model PNM-PCT100W, LDS PONEMAH Physiology Platform, LDS GOULD) was used to analyze the airway resistance. An atomizer was used to generate methacholine spray, which was then administrated to the mice via the ventilator. The data was obtained by deducting the pulmonary resistance (0.45 cm H2O.s.ml^−1) gained by the pipeline inserted into the trachea of the mice, wherein pulmonary resistance RL ratio=RL after methacholine nebulization/RL after PBS nebulization.

EL-4 T lymphoma cells = test: Trypan blue exclusion assay, cell viability; assay type: cell-based, mouse; details: for Cell viability (%): EL-4 cells
Method: (§1) First, in an incubator containing 5 vol % of CO2 at 37° C., EL-4 mouse T lymphoma cells (commercially available from ATCC, Manassas, Va., America) were cultured in the DMEM culture medium (containing 10 wt % of thermally deactivated FBS), and were sub-cultured at a ratio of 1:3.
(§2) Then, at a density of 5×10^5 counts/ml, the T lymphoma cells were bred in a six-well culture dish, and at the 0th minute, brazilin of different concentrations (0.3, 1, 3, 10, or 30 micromole (μM)) was added into the cell culture solution at an amount of 1 μl/ml-cell culture solution. Then, the cells were put into the incubator to be cultured therein. […] During the process of cell culture, the trypan blue exclusion assay was employed to observe effect of the brazilin on the cell viability, results of which are shown in Table 1 and FIG. 1.

IL-5 = test: ELISA of IL-5 in supernatant of EL-4 T lymphoma cells; assay type: cell-based, mouse; details: EL-4 cells
Method: as §1, §2
At 4° C., the T lymphoma cells obtained from Experiment A were centrifugally rotated at a rotational speed of 1000 rpm and at 4° C. for 5 minutes, and the supernatant was collected and analyzed for cytokines.
An enzyme-linked immunosorbent assay (ELISA) kit (commercially available from R&D Systems, Inc., America) was used to analyze the expression of IFN-γ, IL-4, IL-5, and eotaxin cytokines in the aforesaid supernatant, results of which are shown in Table 2, Table 3, FIG. 2, and FIG. 3.
In Experiment B and the following Experiment C, all experimental data are presented in form of “mean±standard deviation”, and statistical discrepancy was analyzed by means of the One-way ANOVA and Newman-keuls post-hoc tests, in which it is considered that there is statistical discrepancy if p<0.05.

## Oc1ccc2c(c1)OC[C@]1(O)Cc3cc(O)c(O)cc3[C@H]21 [brazilin]
Mice with asthma; methacholine 3.125 mg/ml, High dose (430 μg/mice)
  pulmonary resistance Rrs (cm H2O/ml): 2.535 ± 0.1251 cm H2O/ml
Mice with asthma; methacholine 3.125 mg/ml, Low dose (43 μg/mice)
  pulmonary resistance Rrs (cm H2O/ml): 2.237 ± 0.1567 cm H2O/ml
Mice with asthma; methacholine 6.25 mg/ml, High dose (430 μg/mice)
  pulmonary resistance Rrs (cm H2O/ml): 2.680 ± 0.1676 cm H2O/ml
Mice with asthma; methacholine 6.25 mg/ml, Low dose (43 μg/mice)
  pulmonary resistance Rrs (cm H2O/ml): 2.206 ± 0.0665 cm H2O/ml
Mice with asthma; methacholine 12.5 mg/ml, High dose (430 μg/mice)
  pulmonary resistance Rrs (cm H2O/ml): 3.247 ± 0.1368 cm H2O/ml
Mice with asthma; methacholine 12.5 mg/ml, Low dose (43 μg/mice)
  pulmonary resistance Rrs (cm H2O/ml): 2.432 ± 0.1259 cm H2O/ml
Mice with asthma; methacholine 25 mg/ml, High dose (430 μg/mice)
  pulmonary resistance Rrs (cm H2O/ml): 3.691 ± 0.1542 cm H2O/ml
Mice with asthma; methacholine 25 mg/ml, Low dose (43 μg/mice)
  pulmonary resistance Rrs (cm H2O/ml): 2.869 ± 0.1831 cm H2O/ml
Mice with asthma; methacholine challenge, BALB/c mice, result in words
  airway resistance of the mice: reduced
EL-4 T lymphoma cells; 0.3-30 μM, result in words
  effect on the growth of EL-4 T lymphoma cells: no effect
EL-4 T lymphoma cells; EL-4 T lymphoma cells, 0.3-30 μM, result in words
  cytotoxicity: no cytotoxicity
EL-4 T lymphoma cells; brazilin 0.3 μM, no PMA + cAMP
  Cell viability (%): 102.8 ± 6.895%
EL-4 T lymphoma cells; brazilin 0.3 μM, with PMA + cAMP
  Cell viability (%): 115.9 ± 6.968%
EL-4 T lymphoma cells; brazilin 1 μM, no PMA + cAMP
  Cell viability (%): 106.5 ± 1.190%
EL-4 T lymphoma cells; brazilin 1 μM, with PMA + cAMP
  Cell viability (%): 107.4 ± 3.829%
EL-4 T lymphoma cells; brazilin 3 μM, no PMA + cAMP
  Cell viability (%): 101.5 ± 4.226%
EL-4 T lymphoma cells; brazilin 3 μM, with PMA + cAMP
  Cell viability (%): 109.0 ± 3.764%
EL-4 T lymphoma cells; brazilin 10 μM, no PMA + cAMP
  Cell viability (%): 111.5 ± 5.126%
EL-4 T lymphoma cells; brazilin 10 μM, with PMA + cAMP
  Cell viability (%): 100.8 ± 3.257%
EL-4 T lymphoma cells; brazilin 30 μM, no PMA + cAMP
  Cell viability (%): 98.17 ± 8.439%
EL-4 T lymphoma cells; brazilin 30 μM, with PMA + cAMP
  Cell viability (%): 104.7 ± 2.495%
IL-5; result in words
  expression of protein of IL-5 cytokine: inhibited
IL-5; brazilin 0.3 μM + PMA + cAMP
  Concentration of IL-5 (pico-gram/ml): 2480 ± 515.9 pico-gram/ml
IL-5; brazilin 0.3 μM, no PMA + cAMP
  Concentration of IL-5 (pico-gram/ml): 5.925 ± 3.462 pico-gram/ml
IL-5; brazilin 1 μM + PMA + cAMP
  Concentration of IL-5 (pico-gram/ml): 2580 ± 402.8 pico-gram/ml
IL-5; brazilin 1 μM, no PMA + cAMP
  Concentration of IL-5 (pico-gram/ml): 0.2422 ± 0.2422 pico-gram/ml
IL-5; brazilin 3 μM + PMA + cAMP
  Concentration of IL-5 (pico-gram/ml): 2345 ± 392.6 pico-gram/ml
IL-5; brazilin 3 μM, no PMA + cAMP
  Concentration of IL-5 (pico-gram/ml): 0.2422 ± 0.2422 pico-gram/ml
IL-5; brazilin 10 μM + PMA + cAMP
  Concentration of IL-5 (pico-gram/ml): 1809 ± 337.9 pico-gram/ml
IL-5; brazilin 10 μM, no PMA + cAMP
  Concentration of IL-5 (pico-gram/ml): 1.474 ± 0.9891 pico-gram/ml
IL-5; brazilin 30 μM + PMA + cAMP
  Concentration of IL-5 (pico-gram/ml): 1292 ± 531.6 pico-gram/ml
IL-5; brazilin 30 μM, no PMA + cAMP
  Concentration of IL-5 (pico-gram/ml): 0.0 ± 0.0 pico-gram/ml
